From patent publication US12459914B2, “Compounds and compositions for the treatment of tumors” (FONDAZIONE ISTITUTO ITALIANO DI TECNOLOGIA, priority 2019, dated 2025) come the findings set out here.

One test addresses T1, BRC4/RAD51 interaction (Homo sapiens, UniProt Q06609).
T1 construct: purchased Creative Biomart (Rad51); Life Technologies (BRC4 peptide)
T1 sequence (Q06609 1-339): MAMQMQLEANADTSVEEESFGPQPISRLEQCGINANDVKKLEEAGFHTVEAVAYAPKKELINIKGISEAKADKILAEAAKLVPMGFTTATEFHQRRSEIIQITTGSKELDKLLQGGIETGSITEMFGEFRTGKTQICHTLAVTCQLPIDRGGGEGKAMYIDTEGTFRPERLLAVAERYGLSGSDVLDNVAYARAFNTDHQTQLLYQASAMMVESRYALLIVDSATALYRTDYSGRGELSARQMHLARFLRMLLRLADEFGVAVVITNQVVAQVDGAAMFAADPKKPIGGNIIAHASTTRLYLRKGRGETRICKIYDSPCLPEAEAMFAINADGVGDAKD
In words: Competitive ELISA assay, disruption of BRC4/RAD51 interaction. It counts as binding. The settings on record: human Rad51, biotinylated BRC4 peptide. On the procedure:
A competitive ELISA screening assay using biotinylated BRC4 peptide to disrupt the BRC4/RAD51 interaction was performed by modifying the method described by Rajendra et al. (Nucleic Acids Res. 38 (2010) 82-96). BRC4-biotinylated peptide (N-term Biotin[…] from Life Technologies) was used to coat 384-well plates (Nunc). After washing with PBS containing 0.05% Tween-20 (PBST), and blocking with the solution BSA 1%/PBST, overnight hybridization with human Rad51 protein (NP_002866 Creative Biomart, NY) was performed. Test compounds were added in dose-response from […] in triplicate with constant DMSO 1%. Antibody raised against Rad51 (Millipore) and HRP-secondary antibody staining to develop the 3,30,5,50-tetramethyllbenzidine signal (Sigma) quenched with 1M HCl was used as the assay readout. Colorimetric measure was read on Victor5 (PerkinElmer) plate Reader. BRC4 and Rad51 were included in the assay as positive control. Results were analyzed using GraphPad Software.

For the next test, the system named is BxPC-3 cells. Put plainly: Cell viability assay (CellTiter Glo). It counts as cell-based. The settings on record: Homo sapiens, 72 h. On the procedure:
BxPC-3 cells were grown in RPMI 1640 containing 10% FBS, 100 U/ml penicillin/streptomycin, 2 mM glutamine. All media and supplements were from Sigma-Aldrich. Cultures were routinely tested for Mycoplasma contamination. Treatments (Olaparib and BRCA2-Rad51 disruptors) were administered in culture medium supplemented with 0.6% DMSO. The same amount of DMSO was added to the control, untreated cultures.
Cell viability was assessed by CellTiter Glo, Luminescent Cell Viability Assay. Briefly, BxPC-3 cells (1×10^4/well) were plated in white 96-well plates with clear bottom and treated for 72 h with olaparib (10 μM) or with the BRCA2-Rad51 disruptors, given alone or in combination. After treatments, the plate was allowed to equilibrate at room temperature for 30 min and the CellTiter-Glo reactive was directly added to each well. The plate was kept on a shaker for 2 min to induce cell lysis and its luminescence was measured by using a Fluoroskan Ascent FL reader (Labsystems) using manufacturer's instructions.
Background: ATP-based viability assays read luminescence as a measure of living cells.

The term EC50 denotes the concentration that produces a half-maximal response. Take `CCCn1ncc2cc(C3CC(c4c(-c5ccccc5)c5cc(Cl)ccc5[nH]c4=O)=NN3C(=O)CCC(=O)O)ccc21` (centres unmarked) [d.33, 4-[5-(6-chloro-2-oxo-4-phenyl-1H-quinolin-3-yl)-3-(1-propylindazol-5-yl)-3,4-dihydropyrazol-2-yl]-4-oxo-butanoic acid]: the EC50 at BRC4/RAD51 interaction and in the test with BxPC-3 cells was more than 100 µM in each case.

With `O=C(O)CCC(=O)N1N=C(c2c(Cc3ccccc3)c3cc(Cl)ccc3[nH]c2=O)CC1c1ccc(Cl)cc1` (centres unmarked) [d.55, 4-[5-(4-benzyl-6-chloro-2-oxo-1H-quinolin-3-yl)-3-(4-chlorophenyl)-3,4-dihydropyrazol-2-yl]-4-oxo-butanoic acid], the EC50 at BRC4/RAD51 interaction was 70 µM; in the test with BxPC-3 cells, 23.2 µM.

On to `CC(=O)N1N=C(c2c(-c3ccccc3)c3cc(Cl)ccc3[nH]c2=O)CC1c1ccco1` (centres unmarked) [d.21, 3-[2-acetyl-3-(2-furyl)-3,4-dihydropyrazol-5-yl]-6-chloro-4-phenyl-1H-quinolin-2-one], for which the values for the concentration for a half-maximal effect (EC50) at BRC4/RAD51 interaction and with BxPC-3 cells were more than 100 µM and 23 µM, respectively.

With `CCCn1cc2cc(C3CC(c4c(-c5ccccc5)c5cc(Cl)ccc5[nH]c4=O)=NN3C(=O)CCC(=O)O)ccc2n1` (centres unmarked) [d.35, 4-[5-(6-chloro-2-oxo-4-phenyl-1H-quinolin-3-yl)-3-(2-propylindazol-5-yl)-3,4-dihydropyrazol-2-yl]-4-oxo-butanoic acid], the figures for the half-maximal effective concentration (EC50) at BRC4/RAD51 interaction and in the test on BxPC-3 cells were more than 100 µM and 62.6 µM, respectively.

`CCn1cc2cc(-c3ccc(C4CC(c5c(Cc6ccccc6)c6cc(Cl)ccc6[nH]c5=O)=NN4C(=O)CCC(=O)O)cc3)ccc2n1` (centres unmarked) [d.93, 4-[5-(4-benzyl-6-chloro-2-oxo-1H-quinolin-3-yl)-3-[4-(2-ethylindazol-5-yl)phenyl]-3,4-dihydropyrazol-2-yl]-4-oxo-butanoic acid]: the results for the half-maximal effective concentration (EC50) at BRC4/RAD51 interaction and in the test on BxPC-3 cells were 53 µM and 56.6 µM, respectively.

As for `CC(=O)N1N=C(c2c(-c3ccccc3)c3cc(Cl)ccc3[nH]c2=O)CC1c1ccc(-c2ccc(Br)cc2)cc1` (centres unmarked) [d.40, 3-[2-acetyl-3-[4-(4-bromophenyl)phenyl]-3,4-dihydropyrazol-5-yl]-6-chloro-4-phenyl-1H-quinolin-2-one], the 50% effective concentration (EC50) at BRC4/RAD51 interaction worked out at 45 µM; with BxPC-3 cells it was 28 µM.

With `CCC(=O)N1N=C(c2c(-c3ccccc3)c3cc(Cl)ccc3[nH]c2=O)CC1c1ccccc1` (centres unmarked) [d.48, 6-chloro-4-phenyl-3-(3-phenyl-2-propanoyl-3,4-dihydropyrazol-5-yl)-1H-quinolin-2-one], the EC50 amounted to 24 µM on BRC4/RAD51 interaction and 13.7 µM with BxPC-3 cells.

For `NCCC(=O)N1N=C(c2c(-c3ccccc3)c3cc(Cl)ccc3[nH]c2=O)CC1c1ccc(F)cc1` (centres unmarked) [d.4, 3-[2-(3-aminopropanoyl)-3-(4-fluorophenyl)-3,4-dihydropyrazol-5-yl]-6-chloro-4-phenyl-1H-quinolin-2-one], the EC50 on BRC4/RAD51 interaction is more than 100 µM; with BxPC-3 cells, 7.6 µM.

Turning to `COc1ccc(C2CC(c3c(-c4ccccc4)c4cc(Cl)ccc4[nH]c3=O)=NN2C(=O)CCC(=O)O)cc1` (centres unmarked) [d.11, 4-[5-(6-chloro-2-oxo-4-phenyl-1H-quinolin-3-yl)-3-(4-methoxyphenyl)-3,4-dihydropyrazol-2-yl]-4-oxo-butanoic acid], the EC50 at BRC4/RAD51 interaction is more than 100 µM; in the test on BxPC-3 cells, more than 50 µM.

For the compound `O=C(O)CCC(=O)N1N=C(c2c(-c3ccccc3)c3cc(Cl)ccc3[nH]c2=O)CC1c1ccc(-c2ccc(Cl)cc2)cc1` (centres unmarked) [d.37, 4-[5-(6-chloro-2-oxo-4-phenyl-1H-quinolin-3-yl)-3-[4-(4-chlorophenyl)phenyl]-3,4-dihydropyrazol-2-yl]-4-oxo-butanoic acid], the EC50 at BRC4/RAD51 interaction is 25 µM; in the test with BxPC-3 cells, 41.5 µM.
